From patent publication US20050070437A1, “Herbicide combinations comprising specific sulfonamides” (Bayer CropScience GmbH, priority 2003, published 2005)

Test system: Veronica hederifolia
Experiment: Herbicidal action (field trials), visual scoring of harmful plant
Assay type: in vivo
Settings: field trial, natural outdoor conditions; scored visually about 4 weeks after application vs untreated plots; mean of 2-4 plots; application rate g of active substance/hectare: A 5, B 25, C 50 (A + B 5 + 25; A + B + C 5 + 25 + 50)
Experimental: (§1) The seeds or rhizome pieces of the harmful plants and the useful plants were laid out or were present in the soil, and they were grown under natural outdoor conditions. Treatment with the active compounds or active compound combinations was carried out […] before and/or after the emergence of the plants, generally at the 2- to 4-leaf stage, in various dosages using a water application rate of 100 to 400 l/ha (converted).
(§2) After the application (about 4 weeks after the application), the effectiveness of the active compounds or active compound combinations was scored visually by comparing the treated plots to untreated control plots. During scoring, damage and development of all above-ground parts of plants was assessed. Scoring was carried out using a percentage scale (100% effect=all plants have died; 50% effect=50% of the plants and the green parts of the plants have died; 0% effect=no effect observed=like control plot). In each case, the mean score of 2-4 plots was calculated.
(§3) The results are shown in the table below; the effect of the individual application of active compounds (A+B) and C being stated in brackets.

Structure (SMILES)	Veronica hederifolia % effect
O=C(Nc1ccc(F)cc1F)c1cccnc1Oc1cccc(C(F)(F)F)c1 [diflufenican, 2′,4′-difluoro-2-(α,α,α-trifluoro-m-tolyloxy)nicotinanilide]	40%
COC(=O)c1ccc(I)cc1S(=O)(=O)[N-]C(=O)Nc1nc(C)nc(OC)n1.[Na+] [iodosulfuron-methyl-sodium]	15%
CCCOc1nn(C(=O)[N-]S(=O)(=O)c2ccccc2C(=O)OC)c(=O)n1C.[Na+] [propoxycarbazone-sodium]	28%

Test system: Triticum aestivum
Experiment: not given
Assay type: in vivo
Settings: field trial, natural outdoor conditions; scored visually about 4 weeks after application vs untreated plots; mean of 2-4 plots; application rate g of active substance/hectare: A 5, B 25, C 50 (A + B 5 + 25; A + B + C 5 + 25 + 50)
Experimental: as §1, §2, §3

Structure (SMILES)	Triticum aestivum % damage
O=C(Nc1ccc(F)cc1F)c1cccnc1Oc1cccc(C(F)(F)F)c1 [diflufenican, 2′,4′-difluoro-2-(α,α,α-trifluoro-m-tolyloxy)nicotinanilide]	0%
COC(=O)c1ccc(I)cc1S(=O)(=O)[N-]C(=O)Nc1nc(C)nc(OC)n1.[Na+] [iodosulfuron-methyl-sodium]	1%
CCCOc1nn(C(=O)[N-]S(=O)(=O)c2ccccc2C(=O)OC)c(=O)n1C.[Na+] [propoxycarbazone-sodium]	2%
